# Data reported in paper PMC9456400 (International Journal of Molecular Sciences, 2022).
# System: Huh-7 cells
# Test: UHPLC-ESI-QTOF-MS/MS lipidomics
# Type: cell-based, human
# Text: We then questioned whether lorlatinib used at concentrations efficacious against ALK-rearranged lung cancer cells but non-toxic to ALK-negative cells could promote substantial lipidome changes in Huh-7 cells (Figure 1B; Table 1). Accordingly, […], and the lipidome was characterized in a semi-targeted approach using a UHPLC-ESI-QTOF-MS/MS method, in which we matched mass spectra with commercial standards (SPLAH mix), databases such as METLIN-PCDL and Lipid MAPS (accessed on 1 July 2022), as well as corroboration of tentative lipid species upon obtaining their MS/MS spectrum. Representative chromatograms of lipidomic analyses in Huh-7 cells can be found in Figure S1.
# Lipid extraction, preparation of external calibration curves, and quality control approaches were carried out as described. Samples (2 μL) were injected directly into a 1290 Infinity UHPLC system coupled with a dual Agilent jet stream ESI source to a 6550 QTOF-MS instrument (Agilent Technologies, Santa Clara, CA, USA). UHPLC-ESI-QTOF-MS conditions, data analysis and indirect quantification of selected lipid species using MassHunter Qualitative Analysis B.07.00 software (Agilent Technologies), and corroboration of the tentative characterization of compound match entities using the Lipid Maps database (www.lipidmaps.org, accessed on 1 July 2022) and targeted MS/MS acquisition on LC-QTOF-MS instrument, have been previously described in detail.
# Differentially expressed lipid species from untargeted lipidomic data were analyzed by generating volcano plots indicating statistical significance versus magnitude of fold-change for each lipid species (cutoff of Benjamini–Hochberg corrected p-value < 0.05 and log2 fold-change > 1 or […]).
# [1] = Huh-7 cells, SBN 100 µmol/L, lorlatinib 1 µmol/L, median
smiles,measurement,setting,value
"C[C@H]1Oc2cc(cnc2N)-c2c(nn(C)c2C#N)CN(C)C(=O)c2ccc(F)cc21 [lorlatinib, (10R)-7-amino-12-fluoro-2,10,16-trimethyl-15-oxo-10,15,16,17-tetrahydro-2H-8,4-(metheno)pyrazolo [4,3-h][2,5,11]-benzoxadiazacyclotetradecine-3-carbonitrile]","Change of lipid species, single agent","Huh-7, 48 h, lorlatinib 1 μmol/L, silibinin 100 μmol/L","significantly increase several species of ChoE, numerous molecular species of long-chain TG, and several DG, LPC, and PC species"
same,Relative concentration of ChoE 16:0,[1],11.335 µmol/mg protein
same,Relative concentration of ChoE 16:1,[1],25.820 µmol/mg protein
same,Relative concentration of ChoE 17:0,[1],2.170 µmol/mg protein
same,Relative concentration of ChoE 17:1,[1],5.670 µmol/mg protein
same,Relative concentration of ChoE 18:0,[1],4.365 µmol/mg protein
same,Relative concentration of ChoE 18:2,[1],33.284 µmol/mg protein
same,Relative concentration of ChoE 18:3,[1],12.818 µmol/mg protein
same,Relative concentration of ChoE 20:2,[1],6.459 µmol/mg protein
same,Relative concentration of ChoE 20:3,[1],42.167 µmol/mg protein
same,Relative concentration of ChoE 20:4,[1],107.967 µmol/mg protein
same,Relative concentration of ChoE 20:5,[1],68.788 µmol/mg protein
same,Relative concentration of ChoE 22:4,[1],27.538 µmol/mg protein
same,Relative concentration of ChoE 22:5,[1],59.058 µmol/mg protein
same,Relative concentration of DG 34:1,[1],16.654 µmol/mg protein
same,Relative concentration of DG 34:2,[1],17.722 µmol/mg protein
same,Relative concentration of DG 34:3,[1],2.474 µmol/mg protein
same,Relative concentration of DG 36:0,[1],2.250 µmol/mg protein
same,Relative concentration of DG 36:1,[1],8.885 µmol/mg protein
same,Relative concentration of DG 36:2,[1],20.022 µmol/mg protein
same,Relative concentration of DG 36:3,[1],2.186 µmol/mg protein
same,Relative concentration of DG 36:4,[1],4.172 µmol/mg protein
same,Relative concentration of DG 40:4,[1],9.158 µmol/mg protein
same,Relative concentration of LPC 15:0,[1],0.094 µmol/mg protein
same,Relative concentration of LPC 16:0,[1],3.165 µmol/mg protein
same,Relative concentration of LPC 16: e,[1],0.023 µmol/mg protein
same,Relative concentration of LPC 18:0,[1],1.911 µmol/mg protein
same,Relative concentration of LPC 18:0e,[1],0.014 µmol/mg protein
same,Relative concentration of LPC 18:1,[1],1.630 µmol/mg protein
same,Relative concentration of LPC 18:2,[1],0.188 µmol/mg protein
same,Relative concentration of LPC 20:0,[1],0.047 µmol/mg protein
same,Relative concentration of LPC 20:3,[1],0.080 µmol/mg protein
same,Relative concentration of PC 30:0,[1],6.654 µmol/mg protein
same,Relative concentration of PC 31:0,[1],3.243 µmol/mg protein
same,Relative concentration of PC 32:0,[1],20.672 µmol/mg protein
same,Relative concentration of PC 32:1,[1],56.675 µmol/mg protein
same,Relative concentration of PC 32:1e,[1],0.780 µmol/mg protein
same,Relative concentration of PC 32:2,[1],7.800 µmol/mg protein
same,Relative concentration of PC 33:0,[1],3.109 µmol/mg protein
same,Relative concentration of PC 33:1,[1],12.338 µmol/mg protein
same,Relative concentration of PC 33:2,[1],1.113 µmol/mg protein
same,Relative concentration of PC 34:0,[1],5.917 µmol/mg protein
same,Relative concentration of PC 34:1,[1],93.696 µmol/mg protein
same,Relative concentration of PC 34:1e,[1],0.856 µmol/mg protein
same,Relative concentration of PC 34:2,[1],49.219 µmol/mg protein
same,Relative concentration of PC 34:2e,[1],0.709 µmol/mg protein
same,Relative concentration of PC 34:3,[1],5.578 µmol/mg protein
same,Relative concentration of PC 34:4,[1],0.930 µmol/mg protein
same,Relative concentration of PC 35:1,[1],6.392 µmol/mg protein
same,Relative concentration of PC 35:2,[1],6.219 µmol/mg protein
same,Relative concentration of PC 35:4,[1],1.817 µmol/mg protein
same,Relative concentration of PC 36:0,[1],0.209 µmol/mg protein
same,Relative concentration of PC 36:1,[1],24.222 µmol/mg protein
same,Relative concentration of PC 36:2,[1],46.840 µmol/mg protein
same,Relative concentration of PC 36:2e,[1],0.101 µmol/mg protein
same,Relative concentration of PC 36:3,[1],20.945 µmol/mg protein
same,Relative concentration of PC 36:4,[1],26.422 µmol/mg protein
same,Relative concentration of PC 36:5,[1],6.790 µmol/mg protein
same,Relative concentration of PC 36:5e,[1],0.749 µmol/mg protein
same,Relative concentration of PC 38:2,[1],1.747 µmol/mg protein
same,Relative concentration of PC 38:3,[1],2.875 µmol/mg protein
same,Relative concentration of PC 38:4,[1],12.355 µmol/mg protein
same,Relative concentration of PC 38:5,[1],12.838 µmol/mg protein
